Measured values taken from patent publication US10258561B2, “Cosmetic composition containing a brown alga extract, a yeast extract and ascorbic acid” (LVMH RECHERCHE, priority 2013, dated 2019).

Tested on: synthesis of procollagen I by normal human fibroblasts (NHF)
Assay: Synthesis of type I procollagen by aged normal human fibroblasts, ELISA on culture supernatants
Type: cell-based
Conditions: active agents alone
Source text: The influence of the extracts constituting the combination of the invention on the synthesis of procollagen I by normal human fibroblasts (NHF) is studied. Procollagen is a precursor form of collagen secreted in the extracellular medium where the ends are cut in order to result in the collagen subunit. The combining of these collagen molecules will subsequently create the collagen fibers. 1. Cell Model • Type: Normal human fibroblasts (NHF), aged by passages in culture (20th passage). • Culturing conditions: 37° C., 5% CO2. • Culture medium: (Invitrogen 21090-22) supplemented with L-glutamine 2 mM, penicillin 50 UI/ml-streptomycin 50 μg/ml, 10% FCS (Biowest S1810). • Test medium: […]. The active agents are dissolved in the culture medium at the concentration specified in the following table. The synthesis of type I procollagen by these cells was evaluated by the ELISA technique from the culture supernatants of aged fibroblasts. The NHFs are cultured in a 96-well microplate at the rate of 7500 cells/well for 24 hours. At 80% confluence, the medium is replaced with the test medium containing the active agents to be tested or the references. The cells are incubated for 72 hours. The culture supernatants are subsequently recovered and stored at −20° C. while awaiting assaying. […] The amounts of procollagen I are expressed as ng/mg of protein. […]

## O=C1O[C@H]([C@@H](O)CO)C(O)=C1O [Vitamin C, Ascorbic acid]
Aged NHF (20th passage), 72 hours, untreated control 1439 ± 161
  Procoll. I (ng/mg of prot): 2431 ± 55 ng/mg of prot
Vs untreated control
  Variation: +67%
